Measurements from patent publication US9402398B2, “Herbicidal compounds” (SYNGENTA PARTICIPATIONS AG, priority 2012, dated 2016).

test system: Alopecurus myosuroides (ALOMY); assay: Herbicidal glasshouse test, post-emergence; format: in vivo; settings: post-emergence (sprayed after 8 days cultivation), 1000 g/h, evaluated after 13 days
Protocol: (§1) Seeds of a variety of test species are sown in standard soil in pots (Alopecurus myosuroides (ALOMY), Setaria faberi (SETFA), Echinochloa crus-galli (ECHCG), Solanum nigrum (SOLNI), Amaranthus retoflexus (AMARE), Ipomoea hederacea (IPOHE)). After cultivation for one day (pre-emergence) or after 8 days cultivation (post-emergence) under controlled conditions in a glasshouse (at 24/16° C., day/night; 14 hours light; 65% humidity), the plants are sprayed with an aqueous spray solution derived from the formulation of the technical active ingredient in acetone/water (50:50) solution containing 0.5% Tween 20 (polyoxyethelyene sorbitan monolaurate, CAS RN 9005-64-5). Compounds are applied at 1000 g/h. The test plants are then grown in a glasshouse under controlled conditions in a glasshouse (at 24/16° C., day/night; 14 hours light; 65% humidity) and watered twice daily. After 13 days for pre and post-emergence, the test is evaluated for the percentage damage caused to the plant. The biological activities are shown in the following table on a five point scale (5=80-100%; 4=60-79%; 3=40-59%; 2=20-39%; 1=0-19%).

Compound	percentage damage caused to the plant, five point scale, POST Application ALOMY
Cc1cc(C(=O)Nc2nnnn2C)c(=O)n(-c2ccc(F)cc2)n1 [Compound 1.014]	5 (5=80-100%)
Cc1cc(C(=O)Nc2nnnn2C)c(=O)n(Cc2cccc(F)c2)n1 [Compound 1.016]	4 (4=60-79%)
COCCn1nc(C)cc(C(=O)Nc2nnnn2C)c1=O [Compound 1.017]	5 (5=80-100%)
Cc1cc(C(=O)Nc2nnnn2C)c(=O)n(-c2cccc(C#N)c2)n1 [Compound 1.018]	5 (5=80-100%)
Cc1cc(C(=O)Nc2nnnn2C)c(=O)n(-c2cc(Cl)ccc2C)n1 [Compound 1.019]	5 (5=80-100%)

test system: Amaranthus retoflexus (AMARE); assay: Herbicidal glasshouse test, post-emergence; format: in vivo; settings: post-emergence (sprayed after 8 days cultivation), 1000 g/h, evaluated after 13 days
Protocol: as §1

Compound	percentage damage caused to the plant, five point scale, POST Application AMARE
Cc1cc(C(=O)Nc2nnnn2C)c(=O)n(-c2ccc(F)cc2)n1 [Compound 1.014]	5 (5=80-100%)
Cc1cc(C(=O)Nc2nnnn2C)c(=O)n(Cc2cccc(F)c2)n1 [Compound 1.016]	5 (5=80-100%)
COCCn1nc(C)cc(C(=O)Nc2nnnn2C)c1=O [Compound 1.017]	5 (5=80-100%)
Cc1cc(C(=O)Nc2nnnn2C)c(=O)n(-c2cccc(C#N)c2)n1 [Compound 1.018]	5 (5=80-100%)
Cc1cc(C(=O)Nc2nnnn2C)c(=O)n(-c2cc(Cl)ccc2C)n1 [Compound 1.019]	5 (5=80-100%)

test system: Echinochloa crus-galli (ECHCG); assay: Herbicidal glasshouse test, post-emergence; format: in vivo; settings: post-emergence (sprayed after 8 days cultivation), 1000 g/h, evaluated after 13 days
Protocol: as §1

Compound	percentage damage caused to the plant, five point scale, POST Application ECHCG
Cc1cc(C(=O)Nc2nnnn2C)c(=O)n(-c2ccc(F)cc2)n1 [Compound 1.014]	5 (5=80-100%)
Cc1cc(C(=O)Nc2nnnn2C)c(=O)n(Cc2cccc(F)c2)n1 [Compound 1.016]	4 (4=60-79%)
COCCn1nc(C)cc(C(=O)Nc2nnnn2C)c1=O [Compound 1.017]	5 (5=80-100%)
Cc1cc(C(=O)Nc2nnnn2C)c(=O)n(-c2cccc(C#N)c2)n1 [Compound 1.018]	5 (5=80-100%)
Cc1cc(C(=O)Nc2nnnn2C)c(=O)n(-c2cc(Cl)ccc2C)n1 [Compound 1.019]	5 (5=80-100%)

test system: Ipomoea hederacea (IPOHE); assay: Herbicidal glasshouse test, post-emergence; format: in vivo; settings: post-emergence (sprayed after 8 days cultivation), 1000 g/h, evaluated after 13 days
Protocol: as §1

Compound	percentage damage caused to the plant, five point scale, POST Application IPOHE
Cc1cc(C(=O)Nc2nnnn2C)c(=O)n(-c2ccc(F)cc2)n1 [Compound 1.014]	5 (5=80-100%)
Cc1cc(C(=O)Nc2nnnn2C)c(=O)n(Cc2cccc(F)c2)n1 [Compound 1.016]	3 (3=40-59%)
COCCn1nc(C)cc(C(=O)Nc2nnnn2C)c1=O [Compound 1.017]	5 (5=80-100%)
Cc1cc(C(=O)Nc2nnnn2C)c(=O)n(-c2cccc(C#N)c2)n1 [Compound 1.018]	5 (5=80-100%)
Cc1cc(C(=O)Nc2nnnn2C)c(=O)n(-c2cc(Cl)ccc2C)n1 [Compound 1.019]	5 (5=80-100%)

test system: Setaria faberi (SETFA); assay: Herbicidal glasshouse test, post-emergence; format: in vivo; settings: post-emergence (sprayed after 8 days cultivation), 1000 g/h, evaluated after 13 days
Protocol: as §1

Compound	percentage damage caused to the plant, five point scale, POST Application SETFA
Cc1cc(C(=O)Nc2nnnn2C)c(=O)n(-c2ccc(F)cc2)n1 [Compound 1.014]	5 (5=80-100%)
Cc1cc(C(=O)Nc2nnnn2C)c(=O)n(Cc2cccc(F)c2)n1 [Compound 1.016]	1 (1=0-19%)
COCCn1nc(C)cc(C(=O)Nc2nnnn2C)c1=O [Compound 1.017]	5 (5=80-100%)
Cc1cc(C(=O)Nc2nnnn2C)c(=O)n(-c2cccc(C#N)c2)n1 [Compound 1.018]	5 (5=80-100%)
Cc1cc(C(=O)Nc2nnnn2C)c(=O)n(-c2cc(Cl)ccc2C)n1 [Compound 1.019]	5 (5=80-100%)

test system: Solanum nigrum (SOLNI); assay: Herbicidal glasshouse test, post-emergence; format: in vivo; settings: post-emergence (sprayed after 8 days cultivation), 1000 g/h, evaluated after 13 days
Protocol: as §1

Compound	percentage damage caused to the plant, five point scale, POST Application SOLNI
Cc1cc(C(=O)Nc2nnnn2C)c(=O)n(-c2ccc(F)cc2)n1 [Compound 1.014]	5 (5=80-100%)
Cc1cc(C(=O)Nc2nnnn2C)c(=O)n(Cc2cccc(F)c2)n1 [Compound 1.016]	5 (5=80-100%)
COCCn1nc(C)cc(C(=O)Nc2nnnn2C)c1=O [Compound 1.017]	5 (5=80-100%)
Cc1cc(C(=O)Nc2nnnn2C)c(=O)n(-c2cccc(C#N)c2)n1 [Compound 1.018]	5 (5=80-100%)
Cc1cc(C(=O)Nc2nnnn2C)c(=O)n(-c2cc(Cl)ccc2C)n1 [Compound 1.019]	5 (5=80-100%)

test system: Alopecurus myosuroides (ALOMY); assay: Herbicidal glasshouse test, pre-emergence; format: in vivo; settings: pre-emergence (sprayed after cultivation for one day), 1000 g/h, evaluated after 13 days
Protocol: as §1

Compound	percentage damage caused to the plant, five point scale, PRE Application ALOMY
Cc1cc(C(=O)Nc2nnnn2C)c(=O)n(-c2ccc(F)cc2)n1 [Compound 1.014]	5 (5=80-100%)
Cc1cc(C(=O)Nc2nnnn2C)c(=O)n(Cc2cccc(F)c2)n1 [Compound 1.016]	2 (2=20-39%)
COCCn1nc(C)cc(C(=O)Nc2nnnn2C)c1=O [Compound 1.017]	5 (5=80-100%)
Cc1cc(C(=O)Nc2nnnn2C)c(=O)n(-c2cccc(C#N)c2)n1 [Compound 1.018]	5 (5=80-100%)
Cc1cc(C(=O)Nc2nnnn2C)c(=O)n(-c2cc(Cl)ccc2C)n1 [Compound 1.019]	5 (5=80-100%)

test system: Amaranthus retoflexus (AMARE); assay: Herbicidal glasshouse test, pre-emergence; format: in vivo; settings: pre-emergence (sprayed after cultivation for one day), 1000 g/h, evaluated after 13 days
Protocol: as §1

Compound	percentage damage caused to the plant, five point scale, PRE Application AMARE
Cc1cc(C(=O)Nc2nnnn2C)c(=O)n(-c2ccc(F)cc2)n1 [Compound 1.014]	5 (5=80-100%)
Cc1cc(C(=O)Nc2nnnn2C)c(=O)n(Cc2cccc(F)c2)n1 [Compound 1.016]	5 (5=80-100%)
COCCn1nc(C)cc(C(=O)Nc2nnnn2C)c1=O [Compound 1.017]	5 (5=80-100%)
Cc1cc(C(=O)Nc2nnnn2C)c(=O)n(-c2cccc(C#N)c2)n1 [Compound 1.018]	5 (5=80-100%)
Cc1cc(C(=O)Nc2nnnn2C)c(=O)n(-c2cc(Cl)ccc2C)n1 [Compound 1.019]	5 (5=80-100%)

test system: Echinochloa crus-galli (ECHCG); assay: Herbicidal glasshouse test, pre-emergence; format: in vivo; settings: pre-emergence (sprayed after cultivation for one day), 1000 g/h, evaluated after 13 days
Protocol: as §1

Compound	percentage damage caused to the plant, five point scale, PRE Application ECHCG
Cc1cc(C(=O)Nc2nnnn2C)c(=O)n(-c2ccc(F)cc2)n1 [Compound 1.014]	5 (5=80-100%)
Cc1cc(C(=O)Nc2nnnn2C)c(=O)n(Cc2cccc(F)c2)n1 [Compound 1.016]	4 (4=60-79%)
COCCn1nc(C)cc(C(=O)Nc2nnnn2C)c1=O [Compound 1.017]	5 (5=80-100%)
Cc1cc(C(=O)Nc2nnnn2C)c(=O)n(-c2cccc(C#N)c2)n1 [Compound 1.018]	5 (5=80-100%)
Cc1cc(C(=O)Nc2nnnn2C)c(=O)n(-c2cc(Cl)ccc2C)n1 [Compound 1.019]	5 (5=80-100%)

test system: Ipomoea hederacea (IPOHE); assay: Herbicidal glasshouse test, pre-emergence; format: in vivo; settings: pre-emergence (sprayed after cultivation for one day), 1000 g/h, evaluated after 13 days
Protocol: as §1

Compound	percentage damage caused to the plant, five point scale, PRE Application IPOHE
Cc1cc(C(=O)Nc2nnnn2C)c(=O)n(-c2ccc(F)cc2)n1 [Compound 1.014]	4 (4=60-79%)
Cc1cc(C(=O)Nc2nnnn2C)c(=O)n(Cc2cccc(F)c2)n1 [Compound 1.016]	4 (4=60-79%)
COCCn1nc(C)cc(C(=O)Nc2nnnn2C)c1=O [Compound 1.017]	5 (5=80-100%)
Cc1cc(C(=O)Nc2nnnn2C)c(=O)n(-c2cccc(C#N)c2)n1 [Compound 1.018]	5 (5=80-100%)
Cc1cc(C(=O)Nc2nnnn2C)c(=O)n(-c2cc(Cl)ccc2C)n1 [Compound 1.019]	5 (5=80-100%)

test system: Setaria faberi (SETFA); assay: Herbicidal glasshouse test, pre-emergence; format: in vivo; settings: pre-emergence (sprayed after cultivation for one day), 1000 g/h, evaluated after 13 days
Protocol: as §1

Compound	percentage damage caused to the plant, five point scale, PRE Application SETFA
Cc1cc(C(=O)Nc2nnnn2C)c(=O)n(-c2ccc(F)cc2)n1 [Compound 1.014]	5 (5=80-100%)
Cc1cc(C(=O)Nc2nnnn2C)c(=O)n(Cc2cccc(F)c2)n1 [Compound 1.016]	5 (5=80-100%)
COCCn1nc(C)cc(C(=O)Nc2nnnn2C)c1=O [Compound 1.017]	5 (5=80-100%)
Cc1cc(C(=O)Nc2nnnn2C)c(=O)n(-c2cccc(C#N)c2)n1 [Compound 1.018]	5 (5=80-100%)
Cc1cc(C(=O)Nc2nnnn2C)c(=O)n(-c2cc(Cl)ccc2C)n1 [Compound 1.019]	5 (5=80-100%)

test system: Solanum nigrum (SOLNI); assay: Herbicidal glasshouse test, pre-emergence; format: in vivo; settings: pre-emergence (sprayed after cultivation for one day), 1000 g/h, evaluated after 13 days
Protocol: as §1

Compound	percentage damage caused to the plant, five point scale, PRE Application SOLNI
Cc1cc(C(=O)Nc2nnnn2C)c(=O)n(-c2ccc(F)cc2)n1 [Compound 1.014]	5 (5=80-100%)
Cc1cc(C(=O)Nc2nnnn2C)c(=O)n(Cc2cccc(F)c2)n1 [Compound 1.016]	5 (5=80-100%)
COCCn1nc(C)cc(C(=O)Nc2nnnn2C)c1=O [Compound 1.017]	5 (5=80-100%)
Cc1cc(C(=O)Nc2nnnn2C)c(=O)n(-c2cccc(C#N)c2)n1 [Compound 1.018]	5 (5=80-100%)
Cc1cc(C(=O)Nc2nnnn2C)c(=O)n(-c2cc(Cl)ccc2C)n1 [Compound 1.019]	5 (5=80-100%)
